Here are results for twelve molecules from ChEMBL document CHEMBL4346738, “Biological evaluation of molecules of the azaBINOL class as antiviral agents: Inhibition of HIV-1 RNase H activity by 7-isopropoxy-8-(naphth-1-yl)quinoline” (Bioorg Med Chem, 2019).

Data set [1] relates to Human immunodeficiency virus 1. Briefly: Antiviral activity against HIV1 YU2 pseudovirus infected in human TZM-bl cells assessed as inhibition of viral infection incubated for 20 mins prior to infection and measured after 48 hrs post infection by bright Glo-luciferase reporter gene assay. It counts as functional, organism-based, isolate YU2.
Data set [2] has as its system Human immunodeficiency virus 1. Briefly: Antiviral activity against HIV1 89.6 pseudovirus infected in human TZM-bl cells assessed as inhibition of viral infection incubated for 20 mins prior to infection and measured after 48 hrs post infection by bright Glo-luciferase reporter gene assay. In kind it is functional, organism-based, M:B_89.6.
Data set [3] is described as follows: (§1) Cytotoxicity against human TZM-bl cells assessed as reduction in cell viability after 48 hrs by MTT assay. In kind it is cell-based. The conditions noted are these: TZM-bl cells. (Tetrazolium dyes change colour on reduction, which living cells bring about.)
Data set [4] has as its system Human immunodeficiency virus 1. Briefly: Antiviral activity against HIV1 HXB2 pseudovirus infected in human TZM-bl cells assessed as inhibition of viral infection incubated for 20 mins prior to infection and measured after 48 hrs by bright Glo-luciferase reporter gene assay. In kind it is functional, organism-based, M:B_HXB2R. For orientation: In a reporter assay the amount or activity of a reporter protein is the signal.

Data set [5] has as its system Human immunodeficiency virus 1. Briefly: Antiviral activity against HIV1 LAI infected in human LC5 cells expressing DsRed1 reporter gene assessed as inhibition of viral infection measured after 48 hrs post infection by reporter gene based […] assay. In kind it is functional, organism-based.
A short description of data set [6]: Selectivity index, ratio of CC50 for human LC5 cells to IC50 for antiviral activity against HIV1 LAI infected in human LC5 cells. The conditions noted are these: read-out: Ratio CC50/IC50. In kind it is toxicity, cell-based.
Data set [7] in a line: Selectivity index, ratio of CC50 for human TZM-bl cells to IC50 for antiviral activity against HIV1 89.6 pseudovirus infected in human TZM-bl cells. The conditions noted are these: read-out: Ratio CC50/IC50. It counts as toxicity, cell-based.
A short description of data set [8]: Cytotoxicity against human LC5 cells assessed as reduction in cell viability incubated for 48 hrs by resazurin dye-based assay. The conditions noted are these: for CC50 at 48 h: LC5 cells. (The colour change of resazurin is a common sign of viable cells or microbes.)
Data set [9] addresses T1, Human immunodeficiency virus type 1 reverse transcriptase (Human immunodeficiency virus 1, UniProt Q72547). Briefly: Inhibition of HIV1 reverse transcriptase RNase H using 18-nucleotide 3'-fluorescein-labeled RNA/5'-dabcyl-labeled DNA hybrid as substrate measured after 1 hr by FRET based assay.
The target in a further data set is Reverse transcriptase (Moloney murine leukemia virus, UniProt Q83371). Briefly: Inhibition of Murine leukemia virus reverse transcriptase RNase H using 18-nucleotide 3'-fluorescein-labeled RNA/5'-dabcyl-labeled DNA hybrid as substrate measured after 1 hr by FRET based assay.
Data set [10] in a line: Inhibition of Escherichia coli reverse transcriptase RNase H using 18-nucleotide 3'-fluorescein-labeled RNA/5'-dabcyl-labeled DNA hybrid as substrate measured after 1 hr by FRET based assay.
Data set [11] can be described thus: Selectivity index, ratio of CC50 for human TZM-bl cells to IC50 for antiviral activity against HIV1 HXB2 pseudovirus infected in human TZM-bl cells. In kind it is toxicity, cell-based. The conditions noted are these: read-out: Ratio CC50/IC50.
In the next data set the test system is TZM. The data set is described as §1. In kind it is cell-based. The conditions noted are these: tzm, 48 h.
The nature of data set [12]: Half life of the compound in methyl alcohol assessed as compound racemization at 24 degC. In kind it is physicochemical.
Data set [13] concerns Human immunodeficiency virus 1. Briefly: Antiviral activity against HIV1 YU2 pseudovirus infected in human TZM-bl cells assessed as inhibition of viral infection at 20 nM measured after 48 hrs post infection by bright Glo-luciferase reporter gene assay relative to control. It counts as functional. The conditions noted are these: Human immunodeficiency virus 1, isolate YU2, TZM-bl.

The subject of data set [14] is Human immunodeficiency virus 1. In words: Antiviral activity against HIV1 89.6 pseudovirus infected in human TZM-bl cells assessed as inhibition of viral infection at 20 nM measured after 48 hrs post infection by bright Glo-luciferase reporter gene assay relative to control. Particulars: Human immunodeficiency virus 1, M:B_89.6, TZM-bl. In kind it is functional.
The test system of data set [15] is Human immunodeficiency virus 1. Briefly: Antiviral activity against HIV1 HXB2 pseudovirus infected in human TZM-bl cells assessed as inhibition of viral infection at 20 nM measured after 48 hrs post infection by bright Glo-luciferase reporter gene assay relative to control. In kind it is functional. The conditions noted are these: Human immunodeficiency virus 1, M:B_HXB2R.

Data set [16] deals with Human immunodeficiency virus type 1 integrase (Human immunodeficiency virus 1, UniProt Q7ZJM1). Briefly: Inhibition of recombinant HIV1 integrase strand transfer activity using biotin-labeled double-stranded HIV1 LTR U5 donor DNA substrate pretreated for 5 mins followed by substrate addition and measured after 30 mins by ELISA.
For data set [17], the system named is Human immunodeficiency virus 1. In words: Antiviral activity against HIV1 HXB2 pseudovirus infected in human TZM-bl cells assessed as inhibition of viral infection up to 200 uM incubated for 20 mins prior to infection and measured after 48 hrs post infection by bright Glo-luciferase reporter gene assay. It counts as functional, organism-based. Particulars: M:B_HXB2R.

For data set [18], the target named is T1, Human immunodeficiency virus type 1 reverse transcriptase. Briefly: Inhibition of HIV1 Reverse transcriptase polymerase assessed as decrease in digoxigenin and biotin-dUTP incorporation into DNA using poly(A)/oligo(dT)15 as template/primer by ELISA.
For data set [19], the system named is Human immunodeficiency virus 1. In words: Antiviral activity against HIV1 YU2 pseudovirus infected in human TZM-bl cells assessed as inhibition of viral infection up to 200 uM incubated for 20 mins prior to infection and measured after 48 hrs post infection by bright Glo-luciferase reporter gene assay. It counts as functional, organism-based. The conditions noted are these: isolate YU2.

The test system of data set [20] is Human immunodeficiency virus 1. In words: Antiviral activity against HIV1 89.6 pseudovirus infected in human TZM-bl cells assessed as inhibition of viral infection up to 200 uM incubated for 20 mins prior to infection and measured after 48 hrs post infection by bright Glo-luciferase reporter gene assay. In kind it is functional, organism-based. Particulars: M:B_89.6.

For data set [21], the system named is Human immunodeficiency virus 1. In words: Antiviral activity against HIV1 LAI infected in human LC5 cells expressing DsRed1 reporter gene assessed as inhibition of viral infection up to 200 uM measured after 48 hrs post infection by reporter gene based […] assay. It counts as functional, organism-based.
Data set [22] is described as follows: Compound aggregation in D2O/1% DMSO-d6 solvent assessed as change in chemical shift at 12 to 200 uM by 1H NMR dilution analysis. It counts as physicochemical.
Data set [23] in a line: Compound aggregation in D2O/1% DMSO-d6 solvent assessed as peak shape at 12 to 200 uM by 1H NMR dilution analysis. In kind it is physicochemical.
The target in data set [24] is T1, Human immunodeficiency virus type 1 reverse transcriptase. Briefly: Binding affinity to recombinant wild-type full length HIV1 reverse transcriptase p66/p51 expressed in Escherichia coli by biolayer interferometry.
For data set [25], the system named is Human immunodeficiency virus 1. Briefly: Antiviral activity against HIV1 V13-03413B infected in human LC5 cells expressing DsRed1 reporter gene assessed as inhibition of viral infection measured after 48 hrs post infection by reporter gene based […] assay. Particulars: Human immunodeficiency virus 1, V13-03413B. In kind it is functional, organism-based.

Data set [26] in a line: Inhibition of Avian myeloblastosis virus reverse transcriptase RNase H using 18-nucleotide 3'-fluorescein-labeled RNA/5'-dabcyl-labeled DNA hybrid as substrate measured after 1 hr by FRET based assay.
Data set [27] can be described thus: Compound aggregation in D2O/1% DMSO-d6 solvent assessed as number of resonance at 12 to 200 uM by 1H NMR dilution analysis. In kind it is physicochemical.
For data set [28], the system named is Human immunodeficiency virus 1. In words: Selectivity ratio of IC50 for HIV1 V13-03413B infected in human LC5 cells to IC50 for HIV1 LAI infected in human LC5 cells. In kind it is functional.
Data set [29] can be described thus: Metal chelating activity assessed as compound-Mg2+ complex formation in presence of varying concentrations of Mg2+ at 100 uM by UV-vis spectrometry. It counts as ADME.
The mark [30] stands for this setting: Human immunodeficiency virus 1, isolate YU2, TZM-bl, read-out: IC50.
[31] abbreviates: Human immunodeficiency virus 1, M:B_89.6, TZM-bl, read-out: IC50.
Where [32] appears, read: Human immunodeficiency virus 1, M:B_HXB2R, TZM-bl, read-out: IC50.
Setting [33] is: Human immunodeficiency virus 1, LAI, 48 h, read-out: IC50.

The structures appear in SMILES notation. Calls of active or inactive are those of the source.

Chain of Human immunodeficiency virus type 1 integrase (Q7ZJM1 whole entry): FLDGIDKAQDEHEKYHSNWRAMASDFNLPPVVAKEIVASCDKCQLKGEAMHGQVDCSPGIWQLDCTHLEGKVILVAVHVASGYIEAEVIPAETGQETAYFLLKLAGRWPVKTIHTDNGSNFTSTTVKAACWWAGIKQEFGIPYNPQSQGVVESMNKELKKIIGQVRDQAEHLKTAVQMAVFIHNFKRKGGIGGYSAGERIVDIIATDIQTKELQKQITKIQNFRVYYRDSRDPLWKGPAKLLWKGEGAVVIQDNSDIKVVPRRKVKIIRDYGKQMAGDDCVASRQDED

Take `CCN(CC)C(=O)Oc1ccc2cccnc2c1-c1cccc2ccccc12`: the half-inhibitory concentration (IC50) (usually the concentration that gives 50% inhibition) amounted to 77.6 µM in [1] (setting [30]), 56.6 µM in [2] (setting [31]), 61.4 µM in data set [4] (setting [32]) and 24.1 µM in data set [5] (setting [33]). Further, the CC50 (usually the concentration giving 50% cytotoxicity) at 48 h in data set [3] was 95 µM; in data set [8] it was 51.9 µM. Besides, the selectivity ratio in [6] turned out to be 2.2; in data set [7], 1.7.
Consider `NC(=O)c1c(N)sc2c1CCCCC2`, for which it took 28.1 µM to reach half-maximal inhibition in data set [9] (IC50).
`Cc1cc(/C=C/C#N)cc(C)c1Nc1ccnc(Nc2ccc(C#N)cc2)n1` [RILPIVIRINE]: the half-inhibitory concentration (IC50) (in [9]; against Reverse transcriptase; in data set [10]) was over 10 µM in each case.
For the molecule `CC(C)Oc1ccc2ccccc2c1-c1cccc2cccnc12`, the half-inhibitory concentration (IC50) in data set [1] (setting [30]) was over 100 µM; in data set [2] (setting [31]), over 100 µM; in data set [4] (setting [32]) it was over 100 µM; in data set [5] (setting [33]) it was 39.5 µM. The cytotoxic concentration (CC50) at 48 h in [3] was over 100 µM; in data set [8], 145 µM. In addition, the selectivity ratio in [6] stood at 3.6.
As for `CCN(CC)C(=O)Oc1ccc2ccccc2c1-c1cccc2cccnc12`, the IC50 in data set [1] (setting [30]) came to 14 µM; in data set [2] (setting [31]), 16.8 µM; in data set [4] (setting [32]) it was 12.6 µM; in [5] (setting [33]), 50.1 µM. Moreover, the half-maximal cytotoxic concentration (CC50) at 48 h in data set [3] amounted to 69.3 µM; in data set [8] it was 71.4 µM. Moreover, the selectivity ratio in data set [6] came to 1.4; in [11] it was 5.5.
Take `O=C1Nc2ccc(Cl)cc2[C@@](C#CC2CC2)(C(F)(F)F)O1` [EFAVIRENZ]: the CC50 entry in the data set on TZM was “Non-Toxic”.
Take `Oc1ccc2ccccc2c1-c1cccc2cccnc12`: the half-life (as a rule, the time needed for the level to fall by half in the phase considered) in data set [12] was 89 h.
With `COc1cnc(-n2cnc(C)n2)c2[nH]cc(C(=O)C(=O)N3CCN(C(=O)c4ccccc4)CC3)c12`, the inhibition at 0.02 µM in data set [13], in [14] and in data set [15] was 100% each time.
With `CC(C)Oc1ccc2cccnc2c1-c1cccc2cccnc12`, the IC50 in data set [16] is over 100 µM; in data set [1], “Not Active”; in data set [2], “Not Active”; in data set [9], over 100 µM; in data set [18], over 100 µM; in [4], “Not Active”. Moreover, the half-maximal inhibitory concentration (IC50) entry in data set [5] was “Not Active”; on Reverse transcriptase, over 100 µM; in data set [10], over 100 µM. Besides, the result in data set [17], in data set [19], in data set [20] and in data set [21] was inactive. The half-maximal cytotoxic concentration (CC50) result (in the data set with TZM; in data set [8] (48 h)) was “Non-Toxic” in each case.
As to `CC(C)Oc1ccc2cccnc2c1-c1cccc2ccccc12`, the half-maximal inhibitory concentration (IC50) in [16] is over 100 µM; in data set [1] (setting [30]), 8.9 µM; in data set [2] (setting [31]), 4.7 µM; in [9], 46.8 µM; in [18], over 100 µM; in data set [4] (setting [32]), 6.7 µM. Also, the 50% inhibitory concentration (IC50) in data set [5] (setting [33]) was 6.7 µM; in [25], 34.2 µM; against Reverse transcriptase, over 100 µM; in [26], over 100 µM; in data set [10], 44.3 µM. Besides, the Activity entry in [22], in data set [23], in [27] and in [29] was “Not Active” in each case. The CC50 at 48 h was found to be 68.5 µM in [3] and 86.5 µM in [8]. The Kd (usually a measure of binding affinity in units of concentration) in [24] was determined as 38 µM. The selectivity ratio was determined as 11.4 in data set [6] and 14.6 in [7]. Besides, the “Ratio IC50” value in data set [28] amounted to 5.
On to `CCN(CC)C(=O)Oc1ccc2cccnc2c1-c1cccc2cccnc12`, for which the concentration for half-maximal inhibition (IC50) entry in data set [1], in [2], in data set [4] and in data set [5] was “Not Active” each time. The result in data set [17], in [19], in [20] and in data set [21] was inactive. The 50% cytotoxic concentration (CC50) result with TZM is “Non-Toxic”. Also, in [8], the CC50 at 48 h amounted to 383 µM.
With `Oc1ccc2cccnc2c1-c1cccc2ccccc12`, the half-life in data set [12] is 120 h.
